pIC50: −log10 of the molar value.
Legend:
IRAK4 = IRAK4 (Homo sapiens (Human), UniProt Q9NWZ3); test: IRAK4 Inhibition Assay; format: biochemical; settings: ATP 500 μM; IRAK4 0.6 nM; 60 min room temperature
Method in brief: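 Phosphorylated and unphosphorylated fluorescent substrate were resolved by microfluidic electrophoresis after termination with 35 mM EDTA. The room-temperature kinase reaction lasted 60 min after IRAK4, substrates and test compound were combined; vehicle-only defined 0% and no-enzyme 100% inhibition.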

[1] = tested on: TLR2 agonist-stimulated IL-6 in human whole blood; test: IRAK4 Whole Blood Assay; format: cell-based; settings: lipoteichoic acid 10 μg/mL, 5 hours, IL-6 levels
Protocol: Human whole blood containing the anti-coagulant ACD-A was plated in 384-well plate (25 μL/well) and incubated with compounds for 60 minutes at 37° C. in a 5% CO2 incubator. The blood was stimulated with a TLR2 agonist, 10 μg/mL final concentration of lipoteichoic acid (Invivogen, San Diego, CA) in 25 μL RPMI (Gibco) for 5 hours in a 5% CO2 incubator. At the end of the incubation, plates were centrifuged at 2300 rpm for 5 minutes. Supernatants were harvested and analyzed for IL-6 levels by Flow Cytometry beads assay (BD Biosciences, San Jose, CA).

JAK3 kinase = JAK3 kinase (Homo sapiens (Human), UniProt P52333); test: JAK3 Homogeneous Time Resolved Fluorescence (HTRF) Assay; format: binding; settings: for pIC50: competition binding with fluorescein-labeled ATP competitive probe; for Ratio of JAK3 IC50 to IRAK4 IC50: selectivity for IRAK4 over JAK3
Sequence of JAK3 kinase (P52333 whole entry): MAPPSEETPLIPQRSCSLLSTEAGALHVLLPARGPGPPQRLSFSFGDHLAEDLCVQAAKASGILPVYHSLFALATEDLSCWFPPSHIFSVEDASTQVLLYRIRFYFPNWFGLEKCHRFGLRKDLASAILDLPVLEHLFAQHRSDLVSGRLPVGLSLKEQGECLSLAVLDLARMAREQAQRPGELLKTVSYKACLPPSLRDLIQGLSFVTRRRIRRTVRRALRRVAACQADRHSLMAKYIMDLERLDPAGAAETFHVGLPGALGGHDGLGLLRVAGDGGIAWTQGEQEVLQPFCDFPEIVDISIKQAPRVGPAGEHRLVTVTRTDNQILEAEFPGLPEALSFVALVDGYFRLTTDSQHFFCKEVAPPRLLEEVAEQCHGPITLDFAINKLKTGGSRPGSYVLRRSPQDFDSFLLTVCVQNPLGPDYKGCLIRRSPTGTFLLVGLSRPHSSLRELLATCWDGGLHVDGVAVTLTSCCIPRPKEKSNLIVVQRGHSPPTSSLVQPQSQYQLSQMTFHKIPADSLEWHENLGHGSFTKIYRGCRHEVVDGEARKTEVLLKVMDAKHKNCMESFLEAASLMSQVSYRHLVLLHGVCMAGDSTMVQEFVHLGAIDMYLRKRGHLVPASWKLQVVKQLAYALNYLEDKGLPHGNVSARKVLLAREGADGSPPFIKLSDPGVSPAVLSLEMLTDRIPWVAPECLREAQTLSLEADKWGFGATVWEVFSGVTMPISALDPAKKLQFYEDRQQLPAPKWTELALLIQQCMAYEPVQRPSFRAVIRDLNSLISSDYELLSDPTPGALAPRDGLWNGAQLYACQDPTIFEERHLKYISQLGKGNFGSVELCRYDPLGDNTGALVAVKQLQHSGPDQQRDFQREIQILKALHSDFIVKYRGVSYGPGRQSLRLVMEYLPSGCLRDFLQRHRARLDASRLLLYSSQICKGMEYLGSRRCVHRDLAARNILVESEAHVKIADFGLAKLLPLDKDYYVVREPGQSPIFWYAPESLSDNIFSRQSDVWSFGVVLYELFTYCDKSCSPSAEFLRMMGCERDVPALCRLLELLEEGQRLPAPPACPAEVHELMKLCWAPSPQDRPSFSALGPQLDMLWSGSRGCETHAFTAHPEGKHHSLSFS
Method in brief: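 IC50 reflects displacement of a fluorescein-labeled ATP-site probe (at its Kd) from 1 nM tagged JAK3, detected via 0.2 nM Tb anti-His or anti-GST antibody. One-hour incubation; 495 and 520 nm emission ratios, background-subtracted, normalized to maximum signal; 11-point percent inhibition, 4-parameter logistic.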

Sequence of IRAK4 (Q9NWZ3 whole entry, species assumed): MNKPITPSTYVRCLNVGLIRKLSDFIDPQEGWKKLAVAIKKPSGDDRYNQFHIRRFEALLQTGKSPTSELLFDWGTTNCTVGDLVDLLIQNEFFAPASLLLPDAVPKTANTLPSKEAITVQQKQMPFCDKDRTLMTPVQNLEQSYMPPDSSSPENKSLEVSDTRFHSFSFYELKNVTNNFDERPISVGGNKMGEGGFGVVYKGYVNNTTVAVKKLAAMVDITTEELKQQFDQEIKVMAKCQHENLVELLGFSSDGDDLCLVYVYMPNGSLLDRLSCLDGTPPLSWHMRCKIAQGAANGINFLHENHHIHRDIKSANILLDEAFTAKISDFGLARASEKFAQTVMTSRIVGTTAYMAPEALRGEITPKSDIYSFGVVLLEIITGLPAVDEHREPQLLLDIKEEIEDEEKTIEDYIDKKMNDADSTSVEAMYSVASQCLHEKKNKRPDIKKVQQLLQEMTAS

| Structure (SMILES) | pIC50 (IRAK4) | pIC50 [1] | pIC50 (JAK3 kinase) | Ratio of JAK3 IC50 to IRAK4 IC50 (JAK3 kinase) |
| --- | --- | --- | --- | --- |
| CC(=O)N[C@H]1CC[C@H](NC(=O)c2cnn3cc(-c4ccncc4)cc3c2NC(C)C)CC1 [Example 50, N-((1r,4r)-4-acetamidocyclohexyl)-4-(isopropylamino)-6-(pyridin-4-yl)pyrrolo[1,2-b]pyridazine-3-carboxamide] | 8.68 | 6.05 | ~4.41 | ~18571 |
| CC(C)CCNC(=O)c1cnn2cc(-c3ccncc3)cc2c1NC(C)C [Example 64, N-isopentyl-4-(isopropylamino)-6-(pyridin-4-yl)pyrrolo[1,2-b]pyridazine-3-carboxamide] | 7.85 | 5.05 | ~4.54 | ~2071 |
| COC(=O)N[C@H]1CC[C@H](NC(=O)c2cnn3cc(-c4ccncc4)cc3c2NC(C)C)CC1 [Example 51, methyl ((1r,4r)-4-(4-(isopropylamino)-6-(pyridin-4-yl)pyrrolo[1,2-b]pyridazine-3-carboxamido)cyclohexyl)carbamate] | 8.55 | 5.75 | < 4.30 | >17857 |
| CC(C)Nc1c(C(=O)NC[C@@H](F)C(C)(C)O)cnn2cc(-c3cccnc3)cc12 [Example 3, (R)—N-(2-fluoro-3-hydroxy-3-methylbutyl)-4-(isopropylamino)-6-(pyridin-3-yl)pyrrolo[1,2-b]pyridazine-3-carboxamide] | 7.80 | 5.02 | 4.51 | 1938 |
| CC(C)Nc1c(C(=O)N[C@H]2CC[C@H](NC(=O)CO)CC2)cnn2cc(-c3ccncc3F)cc12 [Example 68, 6-(3-fluoropyridin-4-yl)-N-((1r,4r)-4-(2-hydroxyacetamido)cyclohexyl)-4-(isopropylamino)pyrrolo[1,2-b]pyridazine-3-carboxamide] | 8.19 | 5.39 | < 4.30 | >7692 |
| CC(C)Nc1c(C(=O)N[C@H]2CC[C@H](C(N)=O)CC2)cnn2cc(-c3ccncc3F)cc12 [Example 89, N-((1r,4r)-4-carbamoylcyclohexyl)-6-(3-fluoropyridin-4-yl)-4-(isopropylamino) pyrrolo[1,2-b]pyridazine-3-carboxamide] | 8.42 | 5.87 | < 4.30 | >13158 |
| CC(C)Nc1c(C(=O)NCCN2CCOCC2)cnn2cc(-c3ccncc3)cc12 [Example 63, 4-(isopropylamino)-N-(2-morpholinoethyl)-6-(pyridin-4-yl) pyrrolo[1,2-b]pyridazine-3-carboxamide] | 7.92 | 5.70 | < 4.30 | >4167 |
| CC(C)Nc1c(C(=O)NC[C@@H](F)C(C)(C)O)cnn2cc(-c3cn[nH]c3)cc12 [Example 34, (R)—N-(2-fluoro-3-hydroxy-3-methylbutyl)-4-(isopropylamino)-6-(1H-pyrazol-4-yl) pyrrolo[1,2-b]pyridazine-3-carboxamide] | 8.17 | < 5.00 | < 5.00 | >1493 |
| CC(=O)N[C@H]1CC[C@H](NC(=O)c2cnn3cc(-c4ccc(CO)nc4)cc3c2NC(C)C)CC1 [Example 73, N-((1r,4r)-4-acetamidocyclohexyl)-6-(6-(hydroxymethyl)pyridin-3-yl)-4-(isopropylamino)pyrrolo[1,2-b]pyridazine-3-carboxamide] | 8.51 | 6.19 | < 4.30 | >16129 |
| CC(C)Nc1c(C(=O)NCCC(C)(C)O)cnn2cc(-c3ccncc3)cc12 [Example 62, N-(3-hydroxy-3-methylbutyl)-4-(isopropylamino)-6-(pyridin-4-yl)pyrrolo[1,2-b]pyridazine-3-carboxamide] | 8.08 | 5.70 | < 4.30 | >5952 |

Reference: US12570659B2, “Bicyclic heteroaryl compounds useful as IRAK4 inhibitors” (BRISTOL-MYERS SQUIBB COMPANY, priority 2019, dated 2026)
